US20140323575A1, “TYROSINE ISOMERS AS THERAPEUTIC AGENTS” (CONSEJO NACIONAL DE INVESTIGACIONES CIENTIFICAS Y TECNICAS …, priority 2011, published 2014)
“Also recorded” adds a separate entry of the source.

How the values were obtained:
[1] = test system: STAT3; assay: Western blot of p-STAT3 in LB tumor cells; format: cell-based, mice; conditions: LB cells cultured 8 hours with m-tyrosine (250 μg/mL)
Procedure: (§1) FIG. 8 illustrates the effect of meta-tyrosine on the expression of phosphorylated (p)-Erk 1/2 and p-STAT3 in LB tumor cells using Western blot: 3×10^5 LB tumor cells in 0.1 mL of medium were cultured in the presence of 0.1 mL of meta-tyrosine (m-Tyr; 250 μg/mL), phenylalanine (Phe, 250 μg/mL), meta-tyrosine (250 μg/mL)+phenylalanine (250 μg/mL), or saline for 3 minutes (to measure p-ERK 1/2) or for 8 hours (to measure p-STAT3). Positive control was obtained by treating LB cells with pervanadate. Controls with acting, total ERK 1/2, and total STAT3 were also added. FIG. 8A illustrates a representative experiment showing p-ERK 1/2 expression. FIG. 8B is a histogram showing the mean of 5 experiments; a, P<0.01 versus saline and versus meta-tyrosine+phenylalanine; P<0.02 versus phenylalanine. FIG. 8C illustrates a representative experiment showing p-STAT3 expression. […]
(§2) On this basis, we analyzed, first, the effect of m-tyrosine on ERK1 and ERK2 as 2 examples of protein kinases that are activated by the mitogen activated protein/extracellular signal-regulated kinase (MAP/ERK) signal transduction pathway that normally couples intracellular responses associated with cell proliferation, to the binding of growth factors to cell surface receptors (Kohno M, and Pouyssegur J. 2006. Targeting the ERK signaling pathway in cancer therapy. Ann Med; 38:200-211). […]

[2] = test system: ERK1 and ERK2; assay: Western blot of p-ERK 1/2 in LB tumor cells; format: cell-based, mice; conditions: LB cells cultured 3 minutes with m-tyrosine (250 μg/mL)
Procedure: as §1, §2

[3] = test system: MC-C tumor; assay: In vivo growth of s.c. MC-C fibrosarcoma implants; set-up: species or system mice; conditions: for effect on growth of MC-C tumor implants: mouse, in vivo
Procedure: Twelve mice received a s.c. implant of 5×10^6 MC-C tumor cells in the right flank and 25 days later they received a secondary implant of 2×10^6 MC-C tumor cells in the left flank. […] The remaining 6 mice received 0.2 ml of phenylalanine (500 μg/ml) at the site of the secondary implant, daily, for 19 days, starting 1 hour later than the secondary implant. These secondary implants grew as in 6 controls only receiving the implant in the left flank (tumor volumes of secondary tumor+phenylalanine and of controls, 20 days after the implant in the left flank were =680±152 mm^3 and 524±88 mm^3, respectively). […] Significance: Secondary tumor vs. control: p<0.01; vs. secondary tumor+phenylalanine: p<0.02. Control+m-tyrosine vs. control and vs. secondary tumor+phenylalanine: p<0.02.

[4] = test system: C7HI tumor cells; assay: In vitro proliferation of C7HI tumor cells; format: cell-based; conditions: dose-dependent, not shown
[5] = test system: C7HI tumor metastases; assay: Spontaneous metastases of C7HI mammary adenocarcinoma in vivo; set-up: species or system mice
Procedure: FIG. 7A illustrates an experiment in which mice bearing a C7HI tumor for 50 days received, between days 50 and 64, a daily intravenous injection of meta-tyrosine (0.3 mL of 1,000 μg/mL) or saline. Mice were sacrificed at day 50 (n=8, before treatment, primary tumor volume 241±16 mm^3) or at day 65 for treated (n=12, primary tumor volume 1,080±101 mm^3) or control (n=12, primary tumor volume 1,091±88 mm^3) mice, and number and size of macroscopic metastases were determined; d=diameter of metastases in mm; a, P<0.05 (Mann-Whitney U test and Student t test) versus control. […] H&E, hematoxylin and eosin.
Mice bearing a C7HI tumor for 50 days received, between days 50 and 71, a daily intravenous injection of 1.0 mg of meta-tyrosine diluted in 0.1 ml of saline, or saline only. Mice were sacrificed ad day 50 (n=12, before treatment) or at day 71 for treated (n=12) or control (n=12) mice, and number and size of macroscopic metastases were determined; d=diameter of metastases in mm.
C7HI is a breast carcinoma that generates a high number of pulmonary and hepatic metastases, the number of pulmonary metastases being higher than the number of hepatic metastases. In this experiment, 36 mice received one implant each of 5×10^5 tumor C7HI cells. 50 days after implanting the tumor cells, 12 mice were sacrificed for evaluating the number and size of pulmonary and hepatic metastases. The remaining 24 mice were divided in two groups of 12 mice each. The experimental group received 1.0 mg of meta-tyrosine diluted in 0.1 ml of saline per mouse per day. […] The second group (control) received in 0.1 ml of saline per mouse per day. After 21 days of treatment, all mice were sacrificed and the number and size of the metastases were evaluated. […] This inhibitory activity was reflected not only in that the number of metastases of both groups was the same, and in some cases lower, as compared with the number of metastases at the beginning of the treatment (as estimated by the data produced by the 12 mice sacrificed before starting the treatments), but also in that their size was either the same or smaller. This is remarkable because of the 12 experimental mice, there was one showing a low response to the treatment. Should the values measured in this particular mouse be excluded from the pool, the number of metastases at day 71 in the experimental group would have been less than half the number of metastases observed before the start of the treatment at day 50.

[6] = 1.0 mg per mouse per day, intravenous, 21 days

NC(Cc1cccc(O)c1)C(=O)O (centres unmarked) [meta-tyrosine, 3-hydroxyphenylalanine]
activation of STAT3 (p-STAT3 expression) [1]: significantly reduced
activation of ERK1 and ERK2 (p-ERK 1/2 expression) [2]: significantly reduced
tumor volume 20 days after the implant in the left flank ([3]; MC-C implant in left flank only, 0.2 ml of 500 μg/ml daily for 19 days at the site of the implant): 212±57 mm^3
effect on growth of MC-C tumor implants [3]: sharp inhibitory effects
in vitro proliferation of C7HI tumor cells [4]: inhibited
difference between size of primary tumors at day 71, experimental versus controls ([5]; 1.0 mg daily intravenous, days 50 to 71): not significant
growth of microscopic metastases [5, 6]: prevented growth
hepatic metastases at day 71 [5, 6]: no metastases were detected
growth of established macroscopic pulmonary metastases ([5]; 1.0 mg per mouse per day, intravenous, 21 days (days 50-71)): prevented the growth
primary tumor volume at day 65 ([5]; daily intravenous 0.3 mL of 1,000 μg/mL, days 50 to 64): 1,080±101 mm^3
established spontaneous C7HI lung metastases ([5]; daily intravenous 0.3 mL of 1,000 μg/mL, days 50 to 64 (FIG. 7), listed as m-tyrosine): less metastatic foci; also recorded: sharp inhibitory effects

NC(Cc1ccccc1O)C(=O)O (centres unmarked) [ortho-tyrosine, 2-hydroxyphenylalanine]
effect on growth of MC-C tumor implants [3]: inhibitory
in vitro proliferation of C7HI tumor cells [4]: inhibited
effect on C7HI metastases, experiment repeated with orto-tyrosine ([5]; mouse, in vivo): inhibitory effect
